Assay results reported in US20250003968A1, “ACTIVITY-BASED CELL SORTING” (MASSACHUSETTS INSTITUTE OF TECHNOLOGY, priority 2021, published 2025).
*1 amine or outer side, *2 acyl side, *3 side chain or, on linkers, in order; H or OH if unused. Where no end group is shown, it is not given here. [ ]: non-standard residue; d: D form. The star is where a group is joined. 5FAM = O=C1OC2(c3ccc(O)cc3Oc3cc(O)ccc32)c2ccc(C(=O)*)cc21; Suc = O=C(CCC(=O)[*:2])[*:1]; Cy3 = Cy3 fluorophore label; Cy5 = Cy5 fluorophore label; Ahx = NCCCCCC(=O)O

Assays:
[1] = system: homogenates of prostates from Hi-Myc PCa mice; experiment: Multiplexed bead-coupled substrate screen against prostate homogenates; assay type: biochemical, mouse; settings: pre-treatment of Hi-Myc prostate homogenates
Protocol: We turned to the Hi-Myc genetically engineered mouse model of PCa, wherein c-Myc is overexpressed in the murine prostate, resulting in invasive PCa. We selected a panel of 18 peptides previously found by our group to be recognized by a diverse array of metallo- and serine proteases dysregulated in PCa^20 and appended each with a unique, mass-encoded reporter molecule. We coupled these barcoded substrates to magnetic beads via a non-cleavable poly(ethylene glycol) (PEG) linker and incubated the bead cocktail against homogenates of prostates from PCa mice and from age-matched healthy controls (FIG. 20a). Beads were pulled down via magnetic separation, and liberated reporter molecules in the supernatant were measured by mass spectrometry, enabling quantification of substrate cleavage. Unsupervised hierarchical clustering of the cleavage data yielded two distinct clusters corresponding to prostates from PCa mice and prostates from healthy mice (FIG. 20b).

[2] = system: tissue-resident proteases in Eml4-Alk lung tissue sections; experiment: In situ zymography with AZPs on fresh-frozen lung tissue sections; assay type: biochemical, mouse; settings: for effect of inhibitor on Z1 tissue labeling: Eml4-Alk lung sections, 1 mM marimastat, 400 μM AEBSF or inhibitor cocktail; for AZP labeling of Eml4-Alk lung tissue: individual AZPs on consecutive sections, 7 weeks after tumor induction
Protocol: Mice were euthanized by isoflurane overdose. Lungs were then filled with undiluted optimal-cutting-temperature (OCT) compound through catheterization of the trachea; the trachea was subsequently clamped; and lungs were extracted. Individual lobes were dissected and then immediately embedded and frozen in optimal-cutting-temperature (OCT) compound (Sakura).
Cryosectioning was performed at the Koch Institute Histology Core. Prior to staining, slides were air dried, fixed in ice-cold acetone for 10 minutes, and then air dried. After hydration in PBS (3×5 minutes), tissue sections were blocked in protease assay buffer (50 mM Tris, 300 mM NaCl, 10 mM CaCl2), 2 mM ZnCl2, 0.02% (v/v) Brij-35, 1% (w/v) BSA, pH 7.5) for 30 minutes at room temperature. Blocking buffer was aspirated, and solution containing fluorescently labeled AZPs (1 μM each AZP) and a free poly-arginine control (polyR, 0.1 μM) diluted in the protease assay buffer was applied. Slides were incubated in a humidified chamber at 37° C. for 4 hours. For inhibited controls, 400 μM AEBSF (Sigma Aldrich), 1 mM marimastat (Sigma Aldrich), or protease inhibitor cocktail (P8340, Sigma Aldrich) spiked with AEBSF and marimastat was added to the buffer at both the blocking and cleavage assay steps. For uninhibited conditions, dimethyl sulfoxide (DMSO) was added to the assay buffer to a final concentration of 3% (v/v). For co-staining experiments, primary antibodies (E-cadherin, AF748, R&D Systems, 4 μg/mL; vimentin, ab92547, Abcam, 0.5 μg/mL; CD31, AF3628, R&D Systems, 10 μg/mL; desmin, ab227651, Abcam, 1.32 μg/mL) were included in the AZP solution. Following AZP incubation, slides were washed in PBS (3×5 minutes), stained with Hoechst (5 μg/mL, Invitrogen) and the appropriate secondary antibody if relevant (Invitrogen, 1:500), washed in PBS (3×5 minutes), and mounted with ProLong™ Diamond Antifade Mountant (Invitrogen). Slides were scanned on a Pannoramic 250 Flash III whole slide scanner (3DHistech).
The Z1 AZP (10 μmol/L) was incubated with recombinant fibroblast activation protein (FAP) in FAP assay buffer (50 mM Tris, 1 M NaCl, pH 7.5) overnight at 37° C. to run the cleavage reaction to completion. After precleavage with recombinant FAP, the AZP solution was diluted to a final peptide concentration of 0.1 μM in protease assay buffer. Cognate intact Z1 AZP (1 μmol/L) and precleaved Z1 AZP, each with a free polyR control (0.1 μM), were applied to fresh-frozen Eml4-Alk lung tissue sections (slide preparation described above) and incubated at 37° C. for 4 hours. After AZP incubation, slides were washed, stained with Hoechst, mounted, and scanned.
AZP and immunofluorescence staining was quantified in QuPath™ 0.2.3[53] and in ImageJ™ (NIH, v1.53). To perform cell-by-cell analysis, cell segmentation was performed using automated cell detection on the DAPI (nuclear) channel. For quantification of activity inhibition, AZP staining was calculated as a fold change of the mean nuclear AZP signal over the mean nuclear polyR signal. All nuclei within an individual tumor were averaged across that given tumor. Nuclei with a polyR intensity of less than 3 were excluded from analysis. For quantification of AZP intensity based on cell morphology and marker expression, cells were annotated as “vimentin-positive, spindle” if they were spindle-shaped and expressed vimentin; “E-cadherin-positive, cuboidal” if they were cuboidal-shaped and expressed E-cadherin; “vimentin-positive, round” if they were rounded and expressed vimentin. A random forest classifier was trained on all annotated cells (at least 20 cells per class) using multiple cellular features, including nuclear area and eccentricity, and mean cellular fluorescence intensity across all channels. The trained classifier was then applied to all cells across all tumors in the tissue section, and mean cellular fluorescence intensity was quantified.

[3] = system: serine proteases of mouse colon tissue sections; experiment: AZP staining of frozen mouse colon sections; assay type: biochemical
From the text: We validated the AZP principle on colon tissue, whose epithelial cells secrete serine proteases including urokinase plasminogen activator (uPA). We therefore synthesized a Cy5-labeled AZP, termed PZ2 (SEQ ID NO:176), containing a serine protease-cleavable linker. Because similar peptides had never been applied directly to frozen tissue sections, it was unknown whether AZPs would nonspecifically bind to the tissue, or whether proteolytic cleavage would be required for AZP binding. We therefore pre-cleaved PZ2 with a serine protease, mesotrypsin (PRSS3) and applied it to a frozen section of mouse colon for 30 minutes. As a binding control, we also applied intact, uncleaved PZ2 to a consecutive section of mouse colon.
Having verified that proteolytic cleavage induces AZP binding, we next sought to validate whether AZPs could enable localization of protease activity in situ (FIG. 19a). Specifically, it was unknown whether frozen tissue sections would maintain sufficient protease activity to induce probe cleavage or whether cleaved probes would bind at the site of cleavage rather than diffusing to a distant site. We applied PZ2 and a binding control (free polyR-Cy7) to fresh-frozen sections of mouse colon (FIG. 19b). […] These findings verified that protease activity in the tissue section was necessary and sufficient to activate AZPs. Strikingly, we found strong colocalization of PZ2 with E-cadherin, a specific marker of epithelial cells, providing evidence that cleaved AZPs bind at the site of cleavage, rather than diffusing to a distant site (FIG. 19d).

[4] = system: pulmonary protease activity; experiment: In vivo activity-based nanosensors, urinary reporters by LC-MS/MS; parameters: species or system mouse; settings: within 3 days of treatment initiation; 20 mg/kg daily oral gavage
Protocol: The urinary reporter glutamate-fibrinopeptide B (Glu-Fib) was mass barcoded for detection by mass spectrometry. Nanosensors were dosed (50 μL total volume, 20 μM each nanosensor) in mannitol buffer (0.28 M mannitol, 5 mM sodium phosphate monobasic, 15 mM sodium phosphate dibasic, pH 7.0-7.5) by intratracheal intubation. Anesthesia was induced by isoflurane inhalation, and mice were monitored during recovery. For intratracheal instillation, a volume of 50 μL was administered by passive inhalation following intratracheal intubation with a 22G flexible plastic catheter (Exel). […]
LC-MS/MS was performed by Syneos Health using a Sciex™ 6500 triple quadrupole instrument. […] Samples were extracted by solid-phase extraction and analyzed by multiple reaction monitoring by LC-MSMS to quantify concentration of each Glu-Fib mass variant. Analyte quantities were normalized to a spiked-in internal standard and concentrations were calculated from a standard curve using peak area ratio (PAR) to the internal standard. […]
Analyses of urinary reporter data were conducted using the analytic pipelines of the protease activity analysis (PAA) package [52], a publicly available Python package designed to process and visualize enzymatic activity datasets. […] Ten independent train-test trials were run for each classification problem, and classification performance was evaluated with ROC statistics. […]

[5] = system: MMP activity in Hi-Myc prostate tissue sections; experiment: AZP staining of fresh-frozen Hi-Myc prostate sections; assay type: biochemical, mouse
From the text: It was unknown whether AZPs could enable in situ localization of the cleavage of peptides discovered in a screen of bulk homogenates. We therefore synthesized a new AZP (PZ19: SEQ ID NO:186) and applied it to fresh-frozen sections of prostates from Hi-Myc mice (FIG. 21a). With the exception of the protease-cleavable linker and fluorophore, PZ19 was identical in design to the serine protease-responsive PZ2. […] PZ19 labeling was abrogated by the MMP inhibitor marimastat (FIG. 21b middle row), though the free polyR control was unchanged.
It was unknown whether AZPs could be used in conjunction with antibodies to enable dual zymography and immunofluorescence labeling. […] Further, PZ19 labeling and co-localization with Ki67 was abrogated by addition of marimastat (FIG. 21d).

[6] = system: human PCa tissue microarray; experiment: AZP staining of fresh-frozen human PCa tissue microarray (TMA); assay type: biochemical; settings: for labeling of PCa tissue relative to normal prostates: AZP signal normalized to polyR, normal n=4, PCa n=24 cores; for labeling with vs without broad-spectrum cocktail of protease inhibitors: consecutive TMA sections
From the text: Two AZPs incorporating MMP-responsive substrates, PZ16 (SEQ ID NO:184) and PZ19, and two AZPs incorporating serine protease-responsive substrates, Z2 (SEQ ID NO:172) and PZ11 (SEQ ID NO:180), were selected for evaluation. We applied these probes, along with a free polyR control, to a frozen human PCa TMA that contained biopsies from normal prostates and PCa tumors across a range of Gleason scores.
To determine whether AZP binding was dependent on proteolysis, for each probe a consecutive TMA section was treated with a broad-spectrum cocktail of protease inhibitors.
We then investigated whether AZPs preferentially labeled PCa tissue relative to normal prostates. […] AZP activation and tissue staining across the TMA was quantitatively assessed by normalizing AZP signal intensity to polyR signal to account for differing binding propensities within a single core and across individual specimens. […] We further assessed the classification accuracy of these two in situ probes using receiver operating characteristic (ROC) curves.

[7] = system: T1, PZ2, Cy5-labeled AZP containing a serine protease-cleavable linker
T1 sequence: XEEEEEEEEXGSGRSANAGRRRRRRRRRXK

[8] = system: T2, quenched probe Q1, incorporating the substrate S1
T2 sequence: GGPQGIWGQC

Cl.NCCc1ccc(S(=O)(=O)F)cc1 [AEBSF, 4-(2-aminoethyl)benzenesulfonyl fluoride hydrochloride, reference compound]
effect of inhibitor on cleavage of PM19 [1]: minimally affected cleavage
effect of inhibitor on Z1 tissue labeling [2]: completely abrogated Z1 tissue labeling to the level of broad-spectrum inhibition
effect of inhibitor on PZ2 staining ([3]; four-hour incubation, mouse colon): abrogated

CCc1cc2c(cc1N1CCC(N3CCOCC3)CC1)C(C)(C)c1[nH]c3cc(C#N)ccc3c1C2=O [alectinib]
reporters exhibiting differential enrichment in the urine of vehicle- versus alectinib-treated mice [4]: 12 of 14

CNC(=O)[C@@H](NC(=O)[C@H](CC(C)C)[C@H](O)C(=O)NO)C(C)(C)C [marimastat, reference compound]
effect of inhibitor on cleavage of PM19 [1]: fully inhibited cleavage of PM19
effect of inhibitor on PZ19 labeling ([5]; Hi-Myc prostate sections): abrogated
effect of inhibitor on Z1 tissue labeling [2]: did reduce Z1 signal

U-eeeeeeee-X-GGLVPRGSGG-rrrrrrrrr-X-K(Cy5) (Suc-[dE][dE][dE][dE][dE][dE][dE][dE][Ahx]GGLVPRGSGG[dR][dR][dR][dR][dR][dR][dR][dR][dR][Ahx]K(Cy5)) [Z2]
labeling of PCa tissue relative to normal prostates [6]: preferentially label PCa tissue
labeling with vs without broad-spectrum cocktail of protease inhibitors [6]: protease-dependent labeling

U-eeeeeeee-X-GPVPLSLVMG-rrrrrrrrr-X-K(5FAM) (Suc-[dE][dE][dE][dE][dE][dE][dE][dE][Ahx]GPVPLSLVMG[dR][dR][dR][dR][dR][dR][dR][dR][dR][Ahx]K(5FAM)) [PZ19]
labeling of PCa tissue relative to normal prostates [6]: no significant difference between PCa and normal cores
labeling with vs without broad-spectrum cocktail of protease inhibitors [6]: no difference between the uninhibited and inhibited conditions
probe labeling of Hi-Myc prostate sections ([5]; fresh-frozen sections): PZ19 labeling in histologically normal glands of the Hi-Myc prostate
PZ19 labeling of normal mouse prostate ([5]; histologically similar region of healthy prostate): reduced PZ19 labeling

U-eeeeeeee-X-GSGRSANAG-rrrrrrrrr-X-K(Cy5) (Suc-[dE][dE][dE][dE][dE][dE][dE][dE][Ahx]GSGRSANAG[dR][dR][dR][dR][dR][dR][dR][dR][dR][Ahx]K(Cy5)) [PZ2]
probe staining of fresh-frozen mouse colon sections ([3]; four-hour incubation): strong PZ2 staining
fluorescence of colon sections treated with intact probe ([3]; intact, 30 minutes): minimal fluorescence
fluorescence of colon sections treated with pre-cleaved probe ([3]; pre-cleaved with mesotrypsin (PRSS3), 30 minutes): notable fluorescent signal throughout

U-eeeeeeee-X-GsGrsanaG-rrrrrrrrr-X-K(Cy5) (Suc-[dE][dE][dE][dE][dE][dE][dE][dE][Ahx]G[dS]G[dR][dS][dA][dN][dA]G[dR][dR][dR][dR][dR][dR][dR][dR][dR][Ahx]K(Cy5)) [dPZ2, AZP with a non-cleavable d-stereoisomer linker]
probe staining of fresh-frozen mouse colon sections ([3]; four-hour incubation): no Cy5 fluorescence

UeeeeeeeeXGGLGPKGQTGGrrrrrrrrrX-k(Cy3) (Suc-[dE][dE][dE][dE][dE][dE][dE][dE][Ahx]GGLGPKGQTGG[dR][dR][dR][dR][dR][dR][dR][dR][dR][Ahx][dK](Cy3)) [Z7]
AZP labeling of Eml4-Alk lung tissue [2]: protease-mediated, tumor-specific labeling

UeeeeeeeeXGGPQGIWGQGrrrrrrrrrX-k(Cy5) (Suc-[dE][dE][dE][dE][dE][dE][dE][dE][Ahx]GGPQGIWGQG[dR][dR][dR][dR][dR][dR][dR][dR][dR][Ahx][dK](Cy5)) [Z1]
Z1 staining in CD31-high cells of Eml4-Alk sections relative to CD31-high healthy and CD31-low cells ([2]; Eml4-Alk and healthy lung sections): significantly increased
Z1 intensity in vimentin-positive spindle-like cells relative to E-cadherin-positive or vimentin-positive rounded cells ([2]; Eml4-Alk tumors): increased Z1 intensity
Z1 staining of Eml4-Alk tumors ([2]; Eml4-Alk tumors vs free polyR binding control): strong, spindle-like staining
Z1 staining of healthy lungs ([2]; healthy lung sections): undetectable
AZP labeling of Eml4-Alk lung tissue [2]: protease-mediated, tumor-specific labeling
tissue labeling pattern of intact Z1 ([2]; intact Z1 1 μmol/L, 37° C. 4 hours, Eml4-Alk tumors): maintained its spindle-like spatial pattern
tissue labeling pattern of FAP-precleaved Z1 ([2]; precleaved with recombinant FAP, 0.1 μM, Eml4-Alk tumors): diffuse, uniform labeling that mirrored that of a free polyR

mesotrypsin (PRSS3)
in vitro pre-cleavage of the probe, read out by tissue fluorescence [7]: We therefore pre-cleaved PZ2 with a serine protease, mesotrypsin (PRSS3)

recombinant fibroblast activation protein (FAP)
fluorescence activation monitored over time (cleavage of quenched probe) [8]: Fibroblast activation protein (FAP) cleaves S1 in vitro
